# From US9603829B2, “HSP90 inhibitors with modified toxicity” (THE REGENTS OF THE UNIVERSITY OF COLORADO, a body corporate, priority 2011, dated 2017)
# Read-outs that look alike come from different tables or passages of the source.
# Columns and labels:
# [1] = Phase I / phase 1 clinical trials; cited from earlier work
# SHSY-5Y cells = assay: MTT growth inhibition assay in SHSY-5Y dopaminergic cells; type: cell-based, human; conditions: read-out: SHSY-5Y IC50
# Experimental: The 19-substituted benzoquinone ansamycins were also tested in vitro for their ability to reduce the toxicity of BQAs to SH-SY5Y cells a dopaminergic model system of relevance to neurodegenerative disease. Referring to FIG. 9, toxicity of BQAs in SH-SY-5Y cells was measured using trypan blue exclusion (panel A), MTT growth inhibition assay (panel B) and annexin V/PI staining for apoptosis (panel C). Cells in A and C were treated with BQAs (5 μM) for 16 h; cells in B were treated with BQAs for 4 h then allowed to grow in drug-free medium for 72 h. […] The combination of these two properties are likely to be important to the neuroprotective properties of the 19-substituted BQAs.
# Growth inhibition assays (MTT) were conducted in human SHSY-5Y cells following a 4 hr treatment with GA or 19Me-GA. Cell were allowed to grow for 72 hrs following drug treatment. The 19-methyl substituted compounds in all series were minimally toxic (see FIG. 12 for data with geldanamycin, MTT assay, results are expressed as the mean±SD, n=3).
# [2] = test system: Hsp90 (Raf-1, AKT degradation and Hsp70 induction); assay: Biomarkers of Hsp90 inhibition in MDA468/NQ16 cells; type: cell-based, human
# Experimental: (§1) The ability of 19-substituted BQAs to induce growth inhibition was measured by MTT in isogenic MDA468 (null NQO1) and MDA468/NQ16 (high NQO1) cells. […] Biomarkers of Hsp90 inhibition (Raf-1, AKT degradation and Hsp70 induction) were more pronounced in MDA468/NQ16 cells compared to MDA468 cells following treatment with 19-substituted DMAG analogs.
# [3] = test system: MDA468/NQ16 breast cancer cells; assay: MTT growth inhibition in isogenic MDA468/NQ16 and MDA468 cells; type: cell-based, human; conditions: NQO1-rich vs NQO1-null isogenic cells
# Experimental: The 19-substituted benzoquinone ansamycins were also tested in vitro for their ability to inhibit growth similar to DMAG in human breast cancer cells (FIG. 10). MDA468/NQ16 breast cancer cells were treated with 19-substituted DMAG analogs for 4 hours, after which drug-containing media was removed and cells were allowed to grow for an additional 72 h. Cell viability was determined using the MTT assay.
# as §1
# [4] = Glutathione conjugation of benzoquinone ansamycins (HPLC, LC-MS); type: in vitro ADME; conditions: 50 μM BA, pH 7.4, room temperature
# Experimental: BA-GSH conjugate formation was analyzed by HPLC at 270 nm and further confirmed by LC-MS.
# [5] = test system: BT474 human breast cancer cells; assay: MTT growth inhibition in BT474 cells; type: cell-based; conditions: BT474, 4 hr treatment, MTT 72 h later
# Experimental: (§2) The inventors extended the studies with 19-substituted DMAG analogs to include the Her2^+ human breast cancer cell line BT474 (FIG. 15). Growth inhibition (FIG. 15, left panel) was measured in BT474 cells following treatment with analogs for 4 hr. Growth inhibition (MTT) was performed 72 h following drug treatments. Biomarkers of Hsp90 inhibition, Raf-1, AKT, CDK4 and Her2 degradation as well as Hsp70 induction were measured by immunoblot analysis in human BT474 breast cancer cells following treatment with 19-substituted DMAG analogs (5 μM) for 24 hr ([…], left panel).
# Hsp90 = assay: Biomarkers of Hsp90 inhibition in MiaPaCa2 cells; type: cell-based, human; conditions: 5 μM, 24 hr (FIG. 16C)
# Experimental: (§3) The inventors also examined the ability of 19 BQAs to inhibit the growth of human pancreatic cancer cell lines (FIG. 16). For growth inhibition studies (MTT) cells were treated with drugs for 4 hr and then allowed to grow for 72 h. For biomarker studies MiaPaCa2 cells were treated with DMAG analogs (5 μM) for 24 hr. 19 BQAs inhibit the growth of human pancreatic cancer cell lines (FIG. 16A, 16B) and induce biomarkers of Hsp90 inhibition (FIG. 16C) using isogenic Panc-1 (NQO1 null) and Panc-1/C5 (NQO1 expressing) cell lines.
# cdc37/Hsp90 interaction = assay: Immunoprecipitation of cdc37 with Hsp90 in BT474 and MDA468/NQ16 cells; type: cell-based, human; conditions: 5 μM, 24 hr
# Experimental: Similarly, the association of cdc37 with hsp90 was examined in BT474 cells and MDA468/NQ16 cells by immunoprecipitation following treated with analogs (5 μM) for 24 hr. […] This finding is consistent with X ray data using purified Hsp90 showing that the larger 19-phenyl substituent causes greater conformational change in the Hsp90 structure than smaller 19-substituents (not shown). This also correlates with the differential effect of 19-phenyl and 19-methyl DMAG on clients chaperoned by cdc37 to Hsp90 which include Raf1, Akt, cdc2 and cdk4 (FIGS. 8,9,10).
# [6] = test system: primary mouse hepatocytes; assay: Hepatotoxicity in primary mouse hepatocytes (MTT); type: cell-based; conditions: 4 hr, confirmed by Trypan Blue and AST leakage
# Experimental: The inventors next tested the effect of 19-substitution of BQAs on hepatotoxicity in isolated hepatocyte systems. Isolated primary mouse hepatocytes were grown on coated 96-well plates and exposed to BQAs for 4 h after which their survival was determined using the MTT assay.
# As described above, a major obstacle in the development of BQA as drugs has been their ability to induce hepatotoxicity in preclinical studies. […] Toxicity was measured using MTT assay and confirmed using Trypan Blue and AST leakage. The data shown in FIG. 19 were generated using MTT analysis but similar readouts were obtained using either trypan blue exclusion or leakage of AST from hepatocytes.
# [7] = test system: Hsp90 (Raf-1, AKT, CDK4, Her2 degradation, Hsp70 induction); assay: Immunoblot biomarkers of Hsp90 inhibition in BT474 cells; type: cell-based, human
# Experimental: as §2
# [8] = test system: human pancreatic cancer cell lines (Panc-1, Panc-1/C5); assay: MTT growth inhibition in human pancreatic cancer cell lines; type: cell-based; conditions: human pancreatic cancer cell lines, 4 hr treatment, 72 h growth, MTT (FIG. 16A)
# Experimental: as §3
# p23/Hsp90 interaction = assay: Immunoprecipitation of p23 and Hsp90 in BT474 cells; type: cell-based, human; conditions: 5 μM, 24 hr
# Experimental: Forward and reverse immunoprecipitation studies were performed in BT474 cells treated with DMAG analogs (5 μM) for 24 hr.
# [9] = test system: MiaPaCa2 human pancreatic cancer cells; assay: MTT growth inhibition in MiaPaCa2 cells; type: cell-based; conditions: 4 hr treatment, then 72 h growth, MTT, read-out: IC50 MiaPaCa2
# Experimental: as §3
# [10] = 4 hr treatment, then 72 hrs growth, MTT
# [11] = Homo sapiens, SH-SY5Y, 4 hr treatment, then 72 hrs growth, MTT
smiles,measurement,setting,value
"C=CCNC1=C2C[C@@H](C)C[C@H](OC)[C@H](O)[C@@H](C)/C=C(\C)[C@H](OC(N)=O)[C@@H](OC)/C=C\C=C(/C)C(=O)NC(=CC1=O)C2=O [17AAG, 17-demethoxy-17-(2-propenylamino)-geldanamycin, reference compound]",hepatotoxicity / toxicity in clinical trials,[1],dose-limiting toxicity
same,IC50,SHSY-5Y cells; [10],16.2 µM
same,effect on markers of Hsp90 inhibition (Hsp70 induction and Raf-1 degradation) in MDA468/NQ16 compared to MDA468 cells,[2],greater effect on markers of Hsp90 inhibition
same,decrease in IC50 in MDA468/NQ16 cells compared to MDA468 cells,[3],greater than 66 fold
"CO[C@H]1/C=C\C=C(/C)C(=O)NC2=CC(=O)C(NCCN3CCCC3)=C(C[C@@H](C)C[C@H](OC)[C@H](O)[C@@H](C)/C=C(\C)[C@@H]1OC(N)=O)C2=O [17AEP-GA, 17-demethoxy-17-[[2-(pyrrolidin-1-yl)ethyl]amino]-geldanamycin]",fraction conjugated with glutathione,"[4]; 5 mM glutathione, within 10 h",about 90%
"C=CCNC1=C2C[C@@H](C)C[C@H](OC)[C@H](O)[C@@H](C)/C=C(\C)[C@H](OC(N)=O)[C@@H](OC)/C=C\C=C(/C)C(=O)NC(=C(C)C1=O)C2=O [19Me-17AAG, (4E,6Z,8S,9S,10E,12S,13R,14S,16R)-19-(Allylamino)-13-hydroxy-8,14-dimethoxy-4,10,12,16,21-pentamethyl-3,20,22-trioxo-2-azabicyclo[16.3.1]docosa-1(21),4,6,10,18-pentaen-9-yl carbamate]",IC50,"SHSY-5Y cells; Homo sapiens, SH-SY5Y",> 20 µM
"CO[C@H]1/C=C\C=C(/C)C(=O)NC2=C(C)C(=O)C(NCCN(C)C)=C(C[C@@H](C)C[C@H](OC)[C@H](O)[C@@H](C)/C=C(\C)[C@@H]1OC(N)=O)C2=O [19Me-DMAG, (4E,6Z,8S,9S,10E,12S,13R,14S,16R)-19-(2-(Dimethylamino)ethylamino)-13-hydroxy-8,14-dimethoxy-4,10,12,16,21-pentamethyl-3,20,22-trioxo-2-azabicyclo[16.3.1]docosa-1(21),4,6,10,18-pentaen-9-yl carbamate]",IC50,SHSY-5Y cells; [11],> 20 µM
same,growth inhibition,[5],no growth inhibition could be observed
same,induction of biomarkers of Hsp90 inhibition,Hsp90,little effect
same,interaction of cdc37 with Hsp90,cdc37/Hsp90 interaction,had little effect
same,Hsp70 induction,[2]; MDA468/NQ16 (high NQO1) cells,equivalent Hsp70 response to 19-phenyl DMAG
same,Raf-1 and AKT degradation,[2]; MDA468/NQ16 (high NQO1) cells,much less pronounced effect on Hsp90 Raf1 and Akt
same,hepatotoxicity,[6],no toxicity was observed
same,Hsp70 induction,"[7]; BT474, 5 μM, 24 hr, immunoblot",robust Hsp70 response
same,"effects on Hsp90 client proteins (Raf-1, AKT, Her2, CDK4)","[7]; BT474, 5 μM, 24 hr, immunoblot",diminished effects on Hsp90 client proteins
same,"effects on clients chaperoned by cdc37 to Hsp90 (Raf1, Akt, cdc2, cdk4)",[7]; cell line not given,had little effect
same,growth inhibitory activity,[8],little effect
same,interaction of p23 and Hsp90,p23/Hsp90 interaction,disrupted the interaction of p23 and Hsp90
same,IC50,"[9]; Homo sapiens, MIA PaCa-2",35.8 ± 5.5 µM
"COC1=C2C[C@@H](C)C[C@H](OC)[C@H](O)[C@@H](C)/C=C(\C)[C@H](OC(N)=O)[C@@H](OC)/C=C\C=C(/C)C(=O)NC(=C(C)C1=O)C2=O [19Me-GA, (4E,6Z,8S,9S,10E,12S,13R,14S,16R)-13-Hydroxy-8,14,19-trimethoxy-,10,12,16,21-pentamethyl-3,20,22-trioxo-2-azabicyclo[16.3.1]docosa-1(21),4,6,10,18-pentaen-9-yl carbamate]",IC50,"SHSY-5Y cells; Homo sapiens, SH-SY5Y",> 10 µM
"C=CCNC1=C2C[C@@H](C)C[C@H](OC)[C@H](O)[C@@H](C)/C=C(\C)[C@H](OC(N)=O)[C@@H](OC)/C=C\C=C(/C)C(=O)NC(=C(c3ccccc3)C1=O)C2=O [19Ph-17AAG, (4E,6Z,8S,9S,10E,12S,13R,14S,16R)-19-(Allylamino)-13-hydroxy-8,14-dimethoxy-4,10,12,16-tetramethyl-3,20,22-trioxo-21-phenyl-2-azabicyclo[16.3.1]docosa-1(21),4,6,10,18-pentaen-9-yl carbamate]",IC50,"SHSY-5Y cells; Homo sapiens, SH-SY5Y",> 20 µM
"CO[C@H]1/C=C\C=C(/C)C(=O)NC2=CC(=O)C(NCCN(C)C)=C(C[C@@H](C)C[C@H](OC)[C@H](O)[C@@H](C)/C=C(\C)[C@@H]1OC(N)=O)C2=O [DMAG, 17-demethoxy-17-[[2-(dimethylamino)ethyl]amino]-geldanamycin, reference compound]",17-DMAG-SG conjugate formed,"[4]; 5 mM reduced glutathione, within 4 h",approximately 47 μM
same,hepatotoxicity / toxicity in clinical trials,[1],significant toxicities
same,IC50,SHSY-5Y cells; [10],9.4 µM
same,hepatotoxicity,[6],significant hepatotoxicity
same,IC50,[9],0.13 ± 0.01 µM
"COC1=C2C[C@@H](C)C[C@H](OC)[C@H](O)[C@@H](C)/C=C(\C)[C@H](OC(N)=O)[C@@H](OC)/C=C\C=C(/C)C(=O)NC(=CC1=O)C2=O [GA, geldanamycin, reference compound]",hepatotoxicity / toxicity in clinical trials,[1],unacceptable hepatotoxicity
same,IC50,SHSY-5Y cells; [11],0.133 µM
